According to US8889699B2, “5-fluorouracil derivative” (Delta-Fly Pharma, Inc., priority 2009, dated 2014):
Read-outs that look alike come from different tables or passages of the source.

Legend:
[1] = system: human gastric cancer strain (SC-2); settings: 14 days, day 15, Test Example 3
Method: The resulting product was stirred with a stirrer at room temperature for about 10 minutes. […] Thereafter, ultrasonic treatment was performed under ice cooling for about 5 minutes, thereby obtaining a BOF-A2 drug liquid to be used at a dose of 14 mg/kg/day, 21 mg/kg/day, or 28 mg/kg/day. • (f) Experiment: The human gastric cancer strain (SC-2) was subcutaneously transplanted into the back of a BALB/cA-nu mouse and preliminarily proliferated therein. The proliferated strain was extracted, cut into about 2 mm square pieces with scissors in physiological saline, and subcutaneously inoculated to the right axillary region of mice of the same strain, 5 to 6 weeks of age, using a transplantation needle. […] Then, drug administration was initiated from the next day. Each of the test liquids shown in (a) to (e) above was administered orally to the mice in each of the test drug groups using a sonde for oral administration at a dose of 0.1 ml per 10 g body weight once a day for 14 continuous days. In the same manner as the above, the cancer-bearing mice in the control group were subjected to oral administration of only 0.5% HPMC liquid for 14 continuous days.
The tumor volume of each mouse in each group before the initiation of the treatment, on day 3, day 5, day 8 (1 week after), day 11, and day 15 (2 weeks after), i.e., after termination of the administration, was calculated using Equation 1 below, and respective relative tumor volume (RTV) relative to the tumor volume at the time of initiation of the treatment was calculated. In relation to the antitumor effect, the average value of the tumor proliferation inhibition ratio (IR; %) was calculated from the average tumor volume of each treatment group on day 15 (after termination of the treatment) relative to that of the control group on day 15, using Equation 2. […] Along therewith, a weight change ratio was calculated from the body weight of the mice at the time of the termination of the drug administration relative to the body weight of the mice at the time of the initiation of the administration, using Equation 3. […] Tumor volume(mm^3)=(major axis)×(minor axis)^2×½ Equation 1: Tumor proliferation inhibition ratio(IR, %)=[1−(average tumor volume of treatment group)/(average tumor volume of control group)]×100 Equation 2: Average weight change ratio(%)=[(average weight on Day 15)−(average weight on Day 1)]/(average weight on Day 1)×100 Equation 3: […]
The resulting product was stirred with a stirrer at room temperature for about 10 minutes. […] The proliferated strain was extracted, cut into about 2 mm square pieces with scissors in physiological saline, and subcutaneously inoculated to the right axillary region of mice of the same strain, 5 to 6 weeks of age, using a transplantation needle. […] Then, drug administration was initiated from the next day. Each of the test liquids shown in (a) to (c) above was administered orally to the mice in each of the test drug groups using a sonde for oral administration at a dose of 0.1 ml per 10 g body weight once a day for 14 continuous days. In the same manner as the above, the cancer-bearing mice in the control group were subjected to oral administration of only 0.5% HPMC liquid for 14 continuous days.
The tumor volume of each mouse in each group before the initiation of the treatment, on day 3, day 5, day 8 (1 week after), day 11, and day 15 (2 weeks after), i.e., after termination of the administration, was calculated using Equation 1 below, and respective relative tumor volume (RTV) relative to the tumor volume at the time of initiation of the treatment was calculated. In relation to the antitumor effect, the average value of the tumor proliferation inhibition ratio (IR; %) was calculated from the average tumor volume of each treatment group on day 15 (after termination of the treatment) relative to that of the control group on day 15, using Equation 2.

[2] = system: sarcoma 180 cells; experiment: Inhibition of intracellular phosphorylation of 5-FU in cancer cells; assay type: cell-based, mouse; settings: for inhibition at 10 µM / inhibition at 100 µM: Mus musculus, Sarcoma-180, 0.5 h
Method: (§1) • (a) Test liquid preparation 1: Compound I-2 or I-10 of the present invention was dissolved to a concentration of 1 mM in cold physiological saline. The resulting product was further diluted 10-fold with physiological saline, yielding a 100-μM solution. • (b) Test liquid preparation 2: As an OPRT inhibitor, which inhibits the phosphorylation of 5-FU, citrazinic acid (Citra.A.) was dissolved to a concentration of 1 mM in cold physiological saline, and further diluted 10-fold with physiological saline, yielding a 100-μM solution. • (c) Preparation of cancer cell suspension: Ascites-type sarcoma 180 cells were preliminarily transplanted intraperitoneally into an ICR mouse and proliferated therein for use in the test as raw (intact) cells. The proliferated cells were isolated and then washed with physiological saline. […] Immediately after the completion of the reaction, 4 mL of a cold Hanks solution was added to the reaction solution, and the cells were washed and separated by centrifugation. After this procedure was repeated twice, 2 mL of a cold 5% trichloroacetic acid (TCA) solution was added to the cell pellet to disrupt the cells, and 5-FU and its nucleotide metabolites were extracted. Subsequently, a portion of the nucleic acid extract was applied to a silica gel 60F254 plate and developed with a mixed liquid comprising chloroform-methanol-acetic acid (17:3:1) to isolate the nucleotide moiety. The radioactivity thereof was measured and the concentration of 5-FU phosphorylation was measured.
as §1, with “1: Compounds I-9, I-11, I-12, and I-13” for “1: Compound I-2 or I-10”, “invention were separately” for “invention was”, “saline. Each of the” for “saline. The”, “resulting products” for “resulting product”, “acid” for “acid (Citra.A.)”

[3] = Conc. 10 μM, 30 min. Incubation, 5-FU 2 μM, Table 6
[4] = Conc. 100 μM, 30 min. Incubation, 5-FU 2 μM, Table 6
[5] = Conc. 10 μM, 30 min. Incubation, 5-FU 2 μM, Table 6, read-out: Inhibition (%) of phosphorylation of 5-FU
[6] = Conc. 100 μM, 30 min. Incubation, 5-FU 2 μM, Table 6, read-out: Inhibition (%) of phosphorylation of 5-FU
[7] = concentration of 10 μM, reaction for 30 minutes, read-out: percent inhibition of intracellular phosphorylation of 5-FU
[8] = concentration of 100 μM, reaction for 30 minutes, read-out: percent inhibition of intracellular phosphorylation of 5-FU

Row | SMILES | RNA Fraction [2, 3] | RNA Fraction [2, 4] | inhibition at 10 µM [2, 5] | inhibition at 100 µM [2, 6] | inhibition at 10 µM [2, 7] | inhibition at 100 µM [2, 8] | also measured
1 | CCOCn1cc(F)c(=O)n(C(=O)c2cccc(C(=O)Oc3nc(OC(=O)c4ccccc4)ccc3C#N)c2)c1=O [BOF-A2, reference compound] |  |  |  |  |  |  | Average weight change (%) ([1]; 14 mg/kg/day oral): 3.16%; Tumor proliferation inhibition ratio (%) ([1]; 14 mg/kg/day oral): 51.0%; Average weight change (%) ([1]; 21 mg/kg/day oral): −7.48%; Tumor proliferation inhibition ratio (%) ([1]; 21 mg/kg/day oral): 70.9%; Average weight change (%) ([1]; 28 mg/kg/day oral): −20.58%; Tumor proliferation inhibition ratio (%) ([1]; 28 mg/kg/day oral): 72.4%
2 | CCOCn1cc(F)c(=O)n(C(=O)c2cccc(C(=O)Oc3cc(O)c(Cl)cn3)c2)c1=O [Compound 8a, 3-{3-[4-hydroxy-5-chloro-2-pyridyloxycarbonyl]benzoyl}-1-ethoxymethyl-5-fluorouracil] |  |  |  |  |  |  | Average weight change (%) ([1]; 11.5 mg/kg/day oral): 0.34%; Tumor proliferation inhibition ratio (%) ([1]; 11.5 mg/kg/day oral): 52.8%; Average weight change (%) ([1]; 17.3 mg/kg/day oral): 2.32%; Tumor proliferation inhibition ratio (%) ([1]; 17.3 mg/kg/day oral): 58.1%; Average weight change (%) ([1]; 23.0 mg/kg/day oral): −18.11%; Tumor proliferation inhibition ratio (%) ([1]; 23.0 mg/kg/day oral): 77.7%
3 | CCOCn1cc(F)c(=O)n(C(=O)c2cccc(C(=O)Oc3cc(OC(=O)c4cc(OC(=O)C(C)(C)C)nc(OC(=O)C(C)(C)C)c4)c(Cl)cn3)c2)c1=O [Compound I-12, 3-{3-[4-(2,6-dipivaloyloxyisonicotinoyloxy)-5-chloro-2-pyridyloxycarbonyl]benzoyl}-1-ethoxymethyl-5-fluorouracil] | 28.15 pmol/1 × 10^7 cells | 25.48 pmol/1 × 10^7 cells | 55.5% | 59.8% | 35 to 57% | 56 to 63% | 
4 | CCOCn1cc(F)c(=O)n(C(=O)c2cccc(C(=O)Oc3cc(OC(=O)c4ccc(OC(=O)c5ccccc5)nc4OC(=O)c4ccccc4)c(Cl)cn3)c2)c1=O [Compound I-13, 3-{3-[4-(2,6-dibenzoyloxynicotinoyloxy)-5-chloro-2-pyridyloxycarbonyl]benzoyl}-1-ethoxymethyl-5-fluorouracil] | 26.63 pmol/1 × 10^7 cells | 25.68 pmol/1 × 10^7 cells | 58.1% | 59.4% | 35 to 57% | 56 to 63% | 
